Experimental data: US9930888B2, “Composition” (Conopco, Inc., priority 2013, dated 2018)

Test system: S. epidermidis
Assay: bacterial respiration of S. epidermidis suspension in microplate
Type: cell-based
Conditions: lactam pre-blended with hydrotrope, added to remainder of composition, diluted to 11.5 ppm and 0.575 ppm; 20 hours
Protocol: Test samples were diluted in sterile water to achieve a 11.5 ppm level of lactam. Dilute solution (80 μl) was added to a S. epidermidis suspension (20 μl) of bacteria at a concentration of 8 logs in a microplate. Growth media (100 μl tryptone soya broth) was added to each well of the microplate and incubated for 20 hours. Bacterial respiration was measured every 30 minutes and the results were: • A—lactam+hydrotrope only (respiration of surviving bacteria detected ˜4-5 h) • B—lactam added directly to base formulation (which contains MPG)—no pre-mixing prior to addition (respiration of surviving bacteria detected 4-5 hrs) • C—lactam pre-mixed with hydrotrope and then added to base formulation (respiration of surviving bacteria not detected—20 hrs is max detection time) • D—hydrotrope added to base formulation (respiration of surviving bacteria detected 3-4 hrs). The example below is from data obtained when pre-blending lactams with hydrotrope before adding to the remainder of the composition, and diluting to 11.5 ppm and 0.575 ppm in sterile water in order to assess efficacy against S. epidermidis suspension Dilute solution (80 μl) was added to a S. epidermidis suspension (20 μl) of bacteria at a concentration of 8 logs in a microplate. Growth media (100 μl tryptone soya broth) was added to each well of the microplate and incubated for 20 hours. Bacterial respiration was measured every 30 minutes. Data of the test samples were then compared to un-treated cell suspensions (sterile water added instead of test samples) and percent inhibition calculated.

Compound	Result (inhibition of bacterial respiration versus water control)
C=C1NC(=O)C=C1c1ccc(Br)cc1 [5-methylene-4-(4′-bromophenyl)-dihydroprrol-2-one]	82.5%
C=C1NC(=O)CC1c1ccccc1F (centres unmarked) [5-methylene-4-(2′-fluorophenyl)-dihydropyrrol-2-one]	79.4%
